Test results reported in patent US10017492B2 (KANGPU BIOPHARMACEUTICALS, LTD., priority 2014, dated 2018).
Where two headings read alike, the source gives them in different places.

How the values were obtained:
[1] = system: MM.1S cells (myeloma cells); assay: Cell proliferation assay (MTS), MM.1S myeloma cells; type: cell-based; details: Homo sapiens, MM1.S, 72 hours, read-out: IC50 values of MMIS Inhibition
Method: MM.1S cells (myeloma cells) (ATCC, catalog number CRL-2974) were seeded at 1.8×10^3 per well to a 96-well culture plate containing […] (Gibco, catalog number A10491-01), and were incubated in an incubator for 24 hours at 37° C. under 5% CO2. Compounds were prepared as 20 mM stock solutions with DMSO (Sigma, catalog number D2650), and were diluted with the medium to the desired concentration (the final concentration of DMSO was 0.5%) and then were added to each well, incubated in an incubator for 72 hours at 37° C. under 5% CO2. Then, 20 μL MTS (Promega, catalog number G3581) was added to each well, and further incubated for 1-4 hours in an incubator at 37° C. under 5% CO2. OD490 nm was detected with OD650 nm as reference. The control, a solution containing 0.5% DMSO medium, was as 0% inhibition. GraphPad Prism 5 was used, slope was allowed to change to make the dose-effect curve and IC50 values were calculated, shown in table 2 for details.

[2] = system: WSU-DLCL-2 cells (diffuse large B cell lymphoma cells); assay: CTG cell proliferation assay, WSU-DLCL-2 cells; type: cell-based; details: 72-120 hours, CellTiter-Glo, read-out: IC50 Value of WSU-DLCL2 Inhibition
Method: (§1) CTG Cell Proliferation Assay
(§2) Rec-1 cells (Mantle cell lymphoma cells) (ATCC, catalog number CRL-3004), Namalwa.CSN/70 cells (Burkitt lymphoma cells) (DSMZ, catalog number ACC-70), and WSU-DLCL-2 cells (diffuse large B cell lymphoma cells) (DSMZ, catalog number ACC-575) were seeded at (5-15)×10^3 per well to a 96-well plate with transparent bottom and white wall (Corning, catalog number CLS3903) containing specific medium. The plate was placed in an incubator and incubated for 24 hours at 37° C. under 5% CO2. Compounds were prepared as 150 mM stock solutions with DMSO (Sigma, catalog number 276855), and were diluted with the medium to the desired concentration (the final concentration of DMSO was 0.2%) and then were added to each well, incubated in an incubator for 72-120 hours at 37° C. under 5% CO2. Then, 100 μl CellTiter-Glo® cell activity assay reagent (Promega, catalog number G7570) was added to each well. Mixing proceeded for 10 minutes on a shaker to induce cytolysis. The 96-well plate was placed at room temperature for 10 minutes to make the luminous signal stable. A white base film was pasted at the bottom of the culture plate. EnSpire was used to test the plate.

[3] = system: Rec-1 cells (Mantle cell lymphoma cells); assay: CTG cell proliferation assay, Rec-1 cells; type: cell-based; details: Homo sapiens, Rec1, 72-120 hours, CellTiter-Glo, read-out: IC50 Value of Rec-1 Inhibition
Method: as §1, §2

[4] = system: Namalwa.CSN/70 cells (Burkitt lymphoma cells); assay: CTG cell proliferation assay, Namalwa.CSN/70 cells; type: cell-based; details: 72-120 hours, CellTiter-Glo, read-out: IC50 Value of Namalwa.CSN/70 Inhibition
Method: as §1, §2

[5] = system: TNF-α; assay: TNF-α activity inhibiting assay (LPS-stimulated peripheral blood, ELISA); type: cell-based, human; details: Homo sapiens, compound 100 nM, diluted peripheral blood of healthy volunteers, LPS 10 ng/mL, 6 hours, read-out: Inhibitory Rate on TNF-α (%)
Method: TNF-α Activity Inhibiting Assay
Peripheral blood from healthy volunteers was collected and collected with EDTA anticoagulant tubes. After being diluted 5-fold with 1640 medium (Gibco, catalog number 11875-093, USA), the blood was added to 96-well cell culture plates (Costar, catalog number 3599, USA) and then treated with 10 μL solution of the compound of general formula (I) of the present invention in DMSO (Sigma, catalog number D2650, USA). The final concentration of the compound was 100 nM, and the final concentration of DMSO was 0.2%. After incubation for 60 minutes in an incubator at 37° C. under 5% CO2, 10 μL LPS (Sigma, catalog number L-2880, USA) was added to the reaction system, and the final concentration was 10 ng/mL. After further culturing for 6 hours in the incubator at 37° C. under 5% CO2, the supernatant was collected. The content of TNF-α was determined by ELISA (BD Biosciences, catalog number 555212, USA). Absorbance was detected at OD450 nm with a microplate reader, with OD 650 nm as reference. The control, a solution containing 0.2% DMSO medium, was as 0% inhibition. Raw data and standard curves were recorded. The four-parameter drug inhibition curve was plotted by XL-fit software and the inhibition rate of each compound was calculated, as shown in Table 1.

[6] = Homo sapiens, WSUDLCL2, WSU-DLCL-2 cells

SMILES | IC50 [1] [nM] | IC50 [2, 6] [nM] | IC50 [3] [nM] | IC50 [4] [nM] | IC50 ([2]; WSU-DLCL-2 cells) [nM] | inhibition at 0.1 µM [5] [%]
COc1ccc(F)c(CNc2cccc3c2CN(C2CCC(=O)NC2=O)C3=O)c1 (stereo not shown) [Compound A195, 3-(4-((2-fluoro-5-methoxybenzyl)amino)-1-oxoisoindolin-2-yl)piperidine-2,6-dione] | < 300 | > 300000 | < 100 | > 300000 | – | –
COc1ccc(COc2cccc3c2CN(C2CCC(=O)NC2=O)C3=O)c(F)c1 (stereo not shown) [Compound A329, 3-(4-((2-fluoro-4-methoxybenzyl)oxy)-1-oxoisoindolin-2-yl)piperidine-2,6-dione] | < 300 | > 300000 | < 100 | 401 to 300000 | – | ≥ 50
COc1cccc(COc2cccc3c2CN(C2CCC(=O)NC2=O)C3=O)c1F (stereo not shown) [Compound A334, 3-(4-((2-fluoro-3-methoxybenzyl)oxy)-1-oxoisoindolin-2-yl)piperidine-2,6-dione] | < 300 | > 300000 | < 100 | > 300000 | – | ≥ 50
O=C1CCC(N2Cc3c(OCc4cccc(CN5CCOCC5)c4F)cccc3C2=O)C(=O)N1 (stereo not shown) [Compound A399, 3-(4-((2-fluoro-3-(morpholinomethyl)benzyl)oxy)-1-oxoisoindolin-2-yl)piperidine-2,6-dione] | < 300 | 401 to 300000 | < 100 | > 300000 | – | ≥ 50
O=C1CCC(N2Cc3c(OCc4ccc(CN5CCOCC5)cc4F)cc(F)cc3C2=O)C(=O)N1 (stereo not shown) [Compound A407] | < 300 | 401 to 300000 | < 100 | > 300000 | – | < 50
[2H]C1(N2Cc3c(OCc4ccc(CN5CC(C)OC(C)C5)cc4F)cccc3C2=O)CCC(=O)NC1=O (stereo not shown) [Compound A427, 3-deuterium-3-(4-((4-((2,6-dimethylmorpholino)methyl)-2-fluorobenzyl)oxy)-1-oxoisoindolin-2-yl)piperidine-2,6-dione] | < 300 | – | < 100 | > 300000 | 401 to 300000 | ≥ 50
Nc1cc(F)cc2c1CN(C1CCC(=O)NC1=O)C2=O (stereo not shown) [Compound I-28, 3-(4-amino-6-fluoro-1-oxoisoindolin-2-yl)piperidine-2,6-dione] | < 300 | > 300000 | < 100 | > 300000 | – | > 50
Nc1cc(F)cc2c1CN([C@H]1CCC(=O)NC1=O)C2=O [Compound I-29] | < 300 | > 300000 | < 100 | > 300000 | – | > 50
Nc1cc(F)cc2c1CN([C@@H]1CCC(=O)NC1=O)C2=O [Compound I-30] | < 300 | > 300000 | < 100 | > 300000 | – | –
[2H][C@]1(N2Cc3c(N)cc(F)cc3C2=O)CCC(=O)NC1=O [Compound I-31] | < 300 | 401 to 300000 | < 100 | > 300000 | – | > 50

Continued, in another order:

IC50 [1] [nM] | IC50 [2, 6] [nM] | IC50 [3] [nM] | IC50 [4] [nM] | IC50 ([2]; WSU-DLCL-2 cells) [nM] | SMILES | inhibition at 0.1 µM [5] [%]
< 300 | 401 to 300000 | < 100 | 100 to 400 | – | [2H][C@]1(N2Cc3c(NCc4ccc(OC)cc4F)cccc3C2=O)CCC(=O)NC1=O [Compound A356, (S)-3-deuterium-3-(4-((2-fluoro-4-methoxybenzyl)amino)-1-oxoisoindolin-2-yl)piperidine-2,6-dione] | ≥ 50
< 300 | 401 to 300000 | < 100 | 100 to 400 | – | [2H][C@]1(N2Cc3c(NCc4cccc(OC)c4F)cccc3C2=O)CCC(=O)NC1=O [Compound A357, (S)-3-deuterium-3-(4-((2-fluoro-3-methoxybenzyl)amino)-1-oxoisoindolin-2-yl)piperidine-2,6-dione] | ≥ 50
< 300 | 401 to 300000 | < 100 | > 300000 | – | O=C1CCC(N2Cc3c(NCc4cccc(CN5CCOCC5)c4F)cccc3C2=O)C(=O)N1 (stereo not shown) [Compound A381, 3-(4-((2-fluoro-3-(morpholinomethyl)benzyl)amino)-1-oxoisoindolin-2-yl)piperidine-2,6-dione] | ≥ 50
< 300 | < 100 | < 100 | > 300000 | – | O=C1CCC(N2Cc3c(NCc4ccc(CN5CCOCC5)cc4F)cccc3C2=O)C(=O)N1 (stereo not shown) [Compound A382] | ≥ 50
< 300 | 401 to 300000 | 100 to 400 | > 300000 | – | O=C1CCC(N2Cc3c(NCc4cc(CN5CCOCC5)ccc4F)cccc3C2=O)C(=O)N1 (stereo not shown) [Compound A383, 3-(4-((2-fluoro-5-(morpholinomethyl)benzyl)amino)-1-oxoisoindolin-2-yl)piperidine-2,6-dione] | ≥ 50
< 300 | < 100 | < 100 | > 300000 | – | O=C1CCC(N2Cc3c(OCc4ccc(CN5CCOCC5)cc4F)cccc3C2=O)C(=O)N1 (stereo not shown) [Compound A386, 3-(4-((2-fluoro-4-(morpholinomethyl)benzyl)oxy)-1-oxoisoindolin-2-yl)piperidine-2,6-dione] | ≥ 50
< 300 | 401 to 300000 | 100 to 400 | > 300000 | – | [2H][C@]1(N2Cc3c(NCc4cccc(CN5CCOCC5)c4F)cccc3C2=O)CCC(=O)NC1=O [Compound A400, (S)-3-deuterium-3-(4-((2-fluoro-3-(morpholinomethyl)benzyl)amino)-1-oxoisoindolin-2-yl)piperidine-2,6-dione] | ≥ 50
< 300 | < 100 | < 100 | > 300000 | – | [2H][C@]1(N2Cc3c(NCc4ccc(CN5CCOCC5)cc4F)cccc3C2=O)CCC(=O)NC1=O [Compound A402] | ≥ 50
< 300 | 401 to 300000 | < 100 | > 300000 | – | [2H][C@]1(N2Cc3c(OCc4cc(CN5CCOCC5)ccc4F)cccc3C2=O)CCC(=O)NC1=O [Compound A403, (S)-3-deuterium-3-(4-((2-fluoro-5-(morpholinomethyl)benzyl)oxy)-1-oxoisoindolin-2-yl)piperidine-2,6-dione] | ≥ 50
< 300 | 401 to 300000 | < 100 | > 300000 | – | [2H][C@]1(N2Cc3c(OCc4cccc(CN5CCOCC5)c4F)cccc3C2=O)CCC(=O)NC1=O [Compound A404, (S)-3-deuterium-3-(4-((2-fluoro-3-(morpholinomethyl)benzyl)oxy)-1-oxoisoindolin-2-yl)piperidine-2,6-dione] | ≥ 50
< 300 | < 100 | < 100 | > 300000 | – | [2H][C@]1(N2Cc3c(OCc4ccc(CN5CCOCC5)cc4F)cccc3C2=O)CCC(=O)NC1=O [Compound A406, (S)-3-deuterium-3-(4-((2-fluoro-4-(morpholinomethyl)benzyl)oxy)-1-oxoisoindolin-2-yl)piperidine-2,6-dione] | ≥ 50
